Reference: the supplement of paper PMC10307832

Columns and labels:
Test in all cases: relative viability (nuclei count vs DMSO), 5 days (fraction); higher = more cells survive
[1] = test system: ABC-1
How it was run: (§1)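 Cells from lung cancer lines were seeded into 1536-well plates and, one day later, dosed by pin tool. Treatments were either a single drug or a fixed dose of an anchor drug with five library-drug doses (not always all listed) in √10 steps. After 5 days, nuclei were stained in a one-step fixation (final 0.05% Triton X-100, 1% formaldehyde, 1 ug/ml Hoechst) and counted on 4× images, and relative viability is the treated-to-vehicle nuclei ratio, as the median of duplicate plates.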

[2] = test system: NCI-H1915
How it was run: as §1

[3] = test system: NCI-H1993
How it was run: as §1

[4] = test system: NCI-H358
How it was run: as §1

[5] = test system: NCI-H2085
How it was run: as §1

[6] = test system: NCI-H1355
How it was run: as §1

[7] = test system: NCI-H838
How it was run: as §1

[8] = test system: NCI-H2347
How it was run: as §1

[9] = test system: NCI-H650
How it was run: as §1

[10] = test system: NCI-H2342
How it was run: as §1

[11] = test system: LU99A
How it was run: as §1

[12] = test system: HARA
How it was run: as §1

What does the source list for NC(=O)Nc1cc(-c2cccc(F)c2)sc1C(=O)N[C@H]1CCCNC1 [AZD7762] + Cc1cc(Nc2cc(N3CCN(C)CC3)nc(Sc3ccc(NC(=O)C4CC4)cc3)n2)n[nH]1 [Tozasertib] (partner 0.1 µM)?
relative viability ([1]; first compound 0.1 µM): 0.16; relative viability ([1]; first compound 0.3162 µM): 0.115; relative viability ([1]; first compound 1 µM): 0.111; relative viability ([2]; first compound 0.01 µM): 0.471; relative viability ([2]; first compound 0.03162 µM): 0.497; relative viability ([2]; first compound 0.1 µM): 0.483; relative viability ([2]; first compound 0.3162 µM): 0.415; relative viability ([2]; first compound 1 µM): 0.368; relative viability ([3]; first compound 0.01 µM): 0.654; relative viability ([3]; first compound 0.03162 µM): 0.579; relative viability ([3]; first compound 0.1 µM): 0.628; relative viability ([3]; first compound 0.3162 µM): 0.641; relative viability ([3]; first compound 1 µM): 0.547; relative viability ([4]; first compound 0.01 µM): 0.0979; relative viability ([4]; first compound 0.03162 µM): 0.088; relative viability ([4]; first compound 0.1 µM): 0.109; relative viability ([4]; first compound 0.3162 µM): 0.0755; relative viability ([4]; first compound 1 µM): 0.0734; relative viability ([5]; first compound 0.01 µM): 0.875; relative viability ([5]; first compound 0.03162 µM): 0.769; relative viability ([5]; first compound 0.1 µM): 0.807; relative viability ([5]; first compound 0.3162 µM): 0.729; relative viability ([5]; first compound 1 µM): 0.713; relative viability ([6]; first compound 0.01 µM): 0.621; relative viability ([6]; first compound 0.03162 µM): 0.693; relative viability ([6]; first compound 0.1 µM): 0.566; relative viability ([6]; first compound 0.3162 µM): 0.666; relative viability ([6]; first compound 1 µM): 0.532; relative viability ([7]; first compound 0.01 µM): 0.269; relative viability ([7]; first compound 0.03162 µM): 0.299; relative viability ([7]; first compound 0.1 µM): 0.244; relative viability ([7]; first compound 0.3162 µM): 0.187; relative viability ([7]; first compound 1 µM): 0.128; relative viability ([8]; first compound 0.01 µM): 0.62; relative viability ([8]; first compound 0.03162 µM): 0.551; relative viability ([8]; first compound 0.1 µM): 0.585; relative viability ([8]; first compound 0.3162 µM): 0.567; relative viability ([8]; first compound 1 µM): 0.521; relative viability ([9]; first compound 0.01 µM): 0.71; relative viability ([9]; first compound 0.03162 µM): 0.643; relative viability ([9]; first compound 0.1 µM): 0.709; relative viability ([9]; first compound 0.3162 µM): 0.704; relative viability ([9]; first compound 1 µM): 0.526; relative viability ([10]; first compound 0.01 µM): 0.489; relative viability ([10]; first compound 0.03162 µM): 0.501; relative viability ([10]; first compound 0.1 µM): 0.502; relative viability ([10]; first compound 0.3162 µM): 0.455; relative viability ([10]; first compound 1 µM): 0.487; relative viability ([11]; first compound 0.01 µM): 0.318; relative viability ([11]; first compound 0.03162 µM): 0.279; relative viability ([11]; first compound 0.1 µM): 0.341; relative viability ([11]; first compound 0.3162 µM): 0.281; relative viability ([11]; first compound 1 µM): 0.218; relative viability ([12]; first compound 0.01 µM): 0.113; relative viability ([12]; first compound 0.03162 µM): 0.107; relative viability ([12]; first compound 0.1 µM): 0.12; relative viability ([12]; first compound 0.3162 µM): 0.103; relative viability ([12]; first compound 1 µM): 0.0534
